# Results reported in BindingDB's records for doi:10.1021/np970367q (Seoul National University, 1998).
# Test: Inhibition of bovine brain PI-PLCgamma1 at 125 ug/mL
row,SMILES,IC50 [µM]
1,CCCCCC/C=C\CCCCCCCCCc1cccc(O)c1 [3-[10'(Z)-heptadecenyl]phenol],95
2,CCCCCCCCCCCCCCCc1cccc(O)c1 [3-pentadecylphenol],92.6
3,CCCCCCCCCCCCCc1cccc(O)c1 [3-tridecyl phenol],88

# Other lines, results leading:
row,IC50 [µM],SMILES
1,74,CCCCCC/C=C\CCCCCCCCCc1cccc(O)c1C(=O)O [6-[10'(Z)-heptade-cenyljsalicylic acid]
2,76.3,CCCCCC/C=C\CCCCCCCc1cccc(O)c1C(=O)O [6-{8(Z)-pentadecenyl}salicylic acid]
